Measured values from patent publication US20250255847A1, “[…]s: Novel Drugs for Triple Negative Breast Cancer” (SIMMARON RSEARCH INC, priority 2024, published 2025).

Legend:
purified STAT1 protein = biological target: T1, purified STAT1 protein (Homo sapiens, UniProt P42224); assay: Protein thermal shift (PTS) assay of STAT1; type: binding; details: for ΔTm at 0.02 µM: 20 nM
T1 sequence (P42224 1-750): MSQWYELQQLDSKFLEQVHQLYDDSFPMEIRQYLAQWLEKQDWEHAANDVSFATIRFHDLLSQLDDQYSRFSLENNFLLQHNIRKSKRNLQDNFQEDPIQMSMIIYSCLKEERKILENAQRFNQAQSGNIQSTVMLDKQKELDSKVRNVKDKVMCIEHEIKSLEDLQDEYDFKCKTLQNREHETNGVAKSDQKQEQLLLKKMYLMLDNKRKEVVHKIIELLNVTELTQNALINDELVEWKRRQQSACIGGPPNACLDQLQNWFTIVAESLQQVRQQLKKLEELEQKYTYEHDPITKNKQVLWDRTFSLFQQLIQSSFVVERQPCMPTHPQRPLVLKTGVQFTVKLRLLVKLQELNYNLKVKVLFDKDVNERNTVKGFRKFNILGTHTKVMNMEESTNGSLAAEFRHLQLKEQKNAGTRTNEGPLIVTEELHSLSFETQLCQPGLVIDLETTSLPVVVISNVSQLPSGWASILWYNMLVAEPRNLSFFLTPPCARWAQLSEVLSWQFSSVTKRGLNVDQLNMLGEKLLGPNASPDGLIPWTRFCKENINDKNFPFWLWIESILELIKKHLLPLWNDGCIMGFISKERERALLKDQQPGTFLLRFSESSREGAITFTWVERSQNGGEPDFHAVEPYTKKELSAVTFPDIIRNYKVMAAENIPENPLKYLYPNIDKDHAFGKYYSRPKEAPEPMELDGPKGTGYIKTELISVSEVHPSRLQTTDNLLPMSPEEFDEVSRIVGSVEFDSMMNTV
Description: FIG. 5 illustrates an embodiment of the present invention and illustrates evaluations of SIM-1 and SIM-2 as STAT3 inhibitors. (A) Protein thermal shift assay was performed to assess the melting of purified recombinant STAT3 (blue; 0.5 μg protein) (Tm=melting temperature=68.88° C.). The representative melting curves were derived after adding SIM-1 (red; 4 nM), SIM-2 (purple; 8 nM), and positive control stattic (grey; 20 nM) to the STAT3 protein. The differences of melting temperature (ΔTm) between pure protein and protein+ligands are −4.54° C., −4.16° C., and 0.39° C. for SIM-1, SIM-2, and stattic (ΔTm^cut-off>2° C.). (B) Phospho protein array analysis was conducted in cell lysates of MDA-MB-468 cells treated with DMSO control (top left), 25 ng/mL EGF (top right), EGF+10 nM SIM-1 (bottom left), and EGF+SIM-2 (bottom right) for 24 hrs. Each colored arrowhead represents a specific phosphoprotein, and the description was added in the bottom of array images. S=serine and Y=tyrosine. Relative levels of (C) Tyrosine 705 (Y705) phosphorylated STAT3, (D) Serine 727 (S727) phosphorylated STAT3, (E) Tyrosine 693 (Y693) phosphorylated STAT4, (F) Tyrosine 694 ([…]) phosphorylated STAT5A had been derived after normalizing the spot densities (n=5) with respective β-actin spots. Results are mean±SD of five different spot analyses. One-way ANOVA was adopted to test the significance of mean between groups at **p<0.01, and ****p<0.0001. Ns=no significance. Thermal shift assays of increasing doses of (G) SIM-1, (H) SIM-2, and (I) stattic with purified STAT1 protein (0.5 μg protein). The respective ΔTm values were given with the plot after matching with the color code. Similarly, full-length STAT5b protein melting was assessed with (J) SIM-1, (K) SIM-2, and (L) stattic. Results are confirmed after three different experiments.
To confirm the result, PTS assay of STAT1 with SIM-1 (FIG. 5G), SIM-2 (FIG. 5H), and stattic (FIG. 5I) was performed. […] Similar results were observed while performing the binding assay with STAT5b.

[1] = tested on: Y705P STAT3 recruitment in IL6 promoter; assay: Chromatin immunoprecipitation of STAT3 response element in IL6 promoter; type: cell-based, human; details: 10 ng/mL EGF + 20 nM compound, 5 hrs, MDA-MB-468
Description: FIG. 9 illustrates an embodiment of the present invention and illustrates promoter recruitment assay of STAT3 in IL6 promoter. (A) MDA-MB-468 cells were treated with 5, 10, and 20 ng/mL doses of EGF for 5 hrs followed by immunoblot (IB) analyses of Y705 phospho and S727 phospho STAT3 in nuclear extracts. Histone 3 ([…]) IB was run as control. (B) EMSA analyses were performed in nuclear extracts of EGF (20 ng/mL)- and EGF+SIM-1 (20 nM)-treated MDA-MB-468 cells against the STAT3-specific oligonucleotide probe (Li-Cor bioscience; Cat #P/N: 829-07922) or SEQ ID NO: 1 and resolved in 6% DNA retardation gel (Invitrogen). […]
Third, to further confirm the promoter recruitment activity of Y705PSTAT3 in the IL6 promoter, chromatin immunoprecipitation assay of STAT3-response element in the IL6 promoter was performed using primer sets described under “Promoter analysis and Chromatin Immunoprecipitation (ChIP) assay” hereinabove. Briefly, MDA-MB-468 cells were incubated with 10 ng/mL EGF, EGF+SIM-1 (20 nM), and EGF+SIM-2 (20 nM) for 5 hrs followed by performing an immunoprecipitation (IP) of DNA-bound STAT3 with Y705P STAT3-specific antibody and then the precipitated DNA by PCR analysis was analyzed to identify STAT3 response element (˜121 bp long) in IL6 promoter.

SMILES	ΔTm at 0.02 µM (purified STAT1 protein)	ΔTm of STAT1 (purified STAT1 protein; concentration printed only as 'nM' (figure missing))	promoter recruitment activity of Y705P STAT3 in IL6 promoter [1]	ΔTm at 0.01 µM (purified STAT1 protein; 10 nM)
O=C(O)CCC(=O)NCc1csc2ccc(Cl)cc12 [SIM-1, 4-[(5-chloro-1-benzothiophen-3-yl)methylamino]-4-oxobutanoic acid]	0.29 °C	0.41 °C	significantly attenuated	
CCOC(=O)c1c(NC(C)=O)sc2c(Cl)c(/C=N/O)ccc12 [SIM-2, ethyl 2-acetamido-7-chloro-6-(hydroxyiminomethyl)-1-benzothiophene-3-carboxylate]	0.89 °C		significantly attenuated	0.46 °C
